Reference: US20030199516A1, “Methods of treating infection by drug resistant bacteria” (Genesoft, Inc., priority 2001, published 2003)

Key:
[1] = target: target sequence AATTAATCAT (352 bp fragment, Plasmid C); assay: Quantitative DNase I footprint titration; format: binding; conditions: 352 bp C, 22° C., pH 7.0, read-out: Dissociation Constant Kd
Description: (§1) Compounds (1) through (20) according to this invention were screened for their ability to bind to specified DNA target sequences, using DNase I footprinting. Generally, the procedure described in Dervan, WO 98/50582 (1998), was followed.
(§2) Three double stranded circular plasmids A, B, and C were used to prepare double stranded DNA-binding probes containing the target sequences for the DNase I footprint titration experiments. Plasmids A, B, and C had nucleotide sequences given by SEQ ID NO. I, SEQ ID NO. II, and SEQ ID NO. III, respectively.
(§3) The 3′-P32 end-labeled EcoRI/PvuII fragments from each plasmid were prepared by digesting the plasmids with EcoRI and PvuII with simultaneous fill-in using Sequenase v. 2.0, [alpha-P32]-deoxyadenosine-5′-triphosphate, and [alpha-P32]-thymidine-5′-triphosphate, and isolating the cloned fragments by nondenaturing gel electrophoresis. A and G sequencing reactions were carried out as described (See Maxam and Gilbert, Methods Enzymol., 1980, 65, 499-560; Iverson and Dervan, Methods Enzymol., 1987, 15, 7823-7830; Sambrook et al., 1989, Molecular Cloning, 2nd ed., Cold Spring Harbor Laboratory Press: Cold Spring Harbor, N.Y.) Standard methods were used for all DNA manipulations (Sambrook et al., ibid.) The cut sites for EcoRI and PvuII are indicated by bars in the respective maps of Plasmids A, B, and C in FIGS. 5, 6, and 7.
(§4) The 351 base pair dsDNA restriction fragment (SEQ ID NO. IV) of Plasmid A contained the target sequences AAAAAGCAAAAA, AAAAAGACAAAAA, and AAAAAGTACAAAAA. The 310 base pair dsDNA restriction fragment (SEQ ID NO. V) of Plasmid B contained the target sequences AGTACT, AATACT, and ATTACT. The 352 base pair dsDNA restriction fragment (SEQ ID NO. VI) of Plasmid C contained the target sequences TGACAATTAAT, GACAATTAATCA, AATTAATCAT, ACAATTA, and ACAATTAAT. These fragments were used for quantitative DNase I footprinting experiments. Compounds used in the method of this invention bind to at least one of the target sites with a equal to or less than 100 nM, preferably equal to or less than 50 nM, and more preferably equal to or less than 20 nM. The target sequences were selected for the identity with, or similarity to, promoter sites for bacterial genes.
(§5) Quantitative DNase I footprint titration experiments were carried out as described previously (Dervan, WO 98/50582, 1998) with the following changes. All reactions were carried out in a total volume of 400 μL, with compound stock solution or water added to 15,000 cpm radiolabeled restriction fragment affording final solution conditions of 10 mM Tris HCl, 10 mM KCl, 10 mM MgCl2, 5 mM CaCl2, pH 7.0 and 0.01 nM, 0.1 nM, 1.0 nM, 10.0 nM compound or no compound for reference lanes. The compounds were allowed to equilbrate at 22° C. for 16 h. Footprinting reactions were initiated with addition of 10 μL of a DNase I stock solution (at the appropriate concentration to give ˜50% intact DNA) containing 1 mM DTT and allowed to proceed for 7 min at 22° C. The reactions were stopped, ethanol precipitated, resuspended in loading buffer, heat denatured, and placed on ice as described previously (Dervan WO 98/50582, 1998). The reaction products were separated on a precast 8% polyacrylamide denaturing sequencing Castaway gel with 32 preformed wells from Stratagene in 1×TBE at 2000 V. Gels were dried according to the manufacturer and exposed to a storage phosphor screen (Molecular Dynamics). Quantitation and data analysis were carried out as described in Dervan, WO 98/50582, 1998.

S. aureus ATCC 33591 = assay: NCCLS broth microdilution MIC; format: cell-based, Staphylococcus aureus; conditions: Col. B = S. aureus ATCC 33591 (MRSA)
Description: (§6) In vitro antibacterial activity data were collected for the following Gram-positive bacteria: Staphylococcus aureus (ATCC 27660, ATCC 33591 and ATCC 43300, all methicillin resistant strains (MRSA's)); Streptococcus pneumoniae (ATCC 51422, a penicillin resistant strain (PRSP)), Enterococcus faecium (ATCC 51559, and/or a vancomycin resistant strain (VRE)). Additionally, antifungal activity data were collected for Candida albicans (ATCC 38247). Minimal inhibition concentrations (MIC's) were determined using the National Committee for Clinical Laboratory Standards (NCCLS) broth microdilution assay in microtiter plates, as set forth in: (1) the guidelines of the National Committee for Clinical Laboratory Standards (NCCLS) Document M7-A4 (NCCLS, 1997); (2) the guidelines of the National Committee for Clinical Laboratory Standards (NCCLS) Document M11-A4 (NCCLS, 1997); and (3) the guidelines and reference method of the National Committee for Clinical Laboratory Standards (NCCLS) Document M27-T (NCCLS, 1995). For antifungal essays, the method recommended in Murray, PR., 1995 Manual of Clinical Microbiology (ASM Press, Washington, D.C.), was employed.

S. aureus ATCC 43300 = assay: NCCLS broth microdilution MIC; format: cell-based, Staphylococcus aureus; conditions: Col. C = S. aureus ATCC 43300 (MRSA)
Description: as §6

[2] = test system: methicillin resistant Staphylococcus aureus ATCC 33591; assay: Mouse protection assay; format: in vivo; conditions: balb/c mice, 50 mg/kg intravenously at 2, 8, 18 and 24 hours post infection; vehicle 14
Description: (§7) A S. aureus ATCC 33591 culture was grown to log phase overnight and diluted in phosphate buffered saline (pH 7.2) to an optical density of about 0.1 at 600 nm, giving an approximate concentration of 10^8 cfu/mL. Porcine mucin was added to the suspension to a final concentration of 5% mucin. The suspension was diluted 1:100 for a final concentration of 10^6 cfu/mL.
Female balb/c mice (20 g body weight) were injected intraperitoneally with 0.5 mL of bactenal suspension (10^6 cfu/mL). Vehicle (phosphate buffered saline, pH 7.2) or test compound were administered intravenously at 2, 8, 18, and 24 hours post infection. The animals were monitored twice daily and survival counts were recorded up to 48 hours post infection.

[3] = test system: Candida albicans ATCC 38247; assay: Antifungal MIC; format: cell-based; conditions: Col. F = C. albicans ATCC 38247
Description: as §6

[4] = test system: Enterococcus faecium ATCC 51559; assay: NCCLS broth microdilution MIC; format: cell-based; conditions: Col. D = E. faecium ATCC 51559 (VRE)
Description: as §6

[5] = target: target sequence GACAATTAATCA (352 bp fragment, Plasmid C); assay: Quantitative DNase I footprint titration; format: binding; conditions: 352 bp C, 22° C., pH 7.0, read-out: Dissociation Constant Kd
Description: as §1, §2, §3, §4, §5

S. aureus ATCC 27660 = assay: NCCLS broth microdilution MIC; format: cell-based, Staphylococcus aureus; conditions: Col. A = S. aureus ATCC 27660 (MRSA)
Description: as §6

[6] = test system: methicillin resistant Staphylococcus aureus ATCC 33591; assay: Murine neutropenic thigh model; format: in vivo; conditions: neutropenic CF1 mice, 80 mg/kg intravenously 2 h post infection, 6 hr after treatment, vehicle 7.83
Description: as §7, with “cfu/mL.” for “cfu/mL. Porcine mucin was added to the suspension to a final concentration of 5% mucin.”, “1:100 in phosphate buffered saline (pH 7.2)” for “1:100”
Outbred female CFI mice (approx. 20 gram body weight) were rendered netutropenic by treatment with cyclophosphamide (200 mg/kg body weight, intraperitoneal injection) at 2 and 4 days prior to inoculation. Groups of 5 mice were inoculated with 0.05 mL of the bacteria (approx. 10^6 cfu/mL) into the anterior thigh. Each group was treated intravenously two hours post infection with vehicle (phosphate buffered saline) or test compound. The mice were sacrificed at either 6 or 24 hrs after treatment and thighs were collected aseptically. Each thigh was weighed, placed into sterile saline, and homogenized. The tissue homogenates were diluted appropriately for plating on agar plates. Colony counts were recorded (cfu/gram) and compared to control groups.

[7] = test system: Streptococcus pneumoniae ATCC 51422; assay: NCCLS broth microdilution MIC; format: cell-based; conditions: Col. E = S. pneumoniae ATCC 51422 (PRSP)
Description: as §6

[8] = target: target sequence AATACT (310 bp fragment, Plasmid B); assay: Quantitative DNase I footprint titration; format: binding; conditions: 310 bp B, 22° C., pH 7.0, read-out: Dissociation Constant Kd
Description: as §1, §2, §3, §4, §5

[9] = target: target sequence ATTACT (310 bp fragment, Plasmid B); assay: Quantitative DNase I footprint titration; format: binding; conditions: 310 bp B, 22° C., pH 7.0, read-out: Dissociation Constant Kd
Description: as §1, §2, §3, §4, §5

[10] = target: target sequence ACAATTAAT (352 bp fragment, Plasmid C); assay: Quantitative DNase I footprint titration; format: binding; conditions: 352 bp C, 22° C., pH 7.0, read-out: Dissociation Constant Kd
Description: as §1, §2, §3, §4, §5

[11] = target: target sequence AGTACT (310 bp fragment, Plasmid B); assay: Quantitative DNase I footprint titration; format: binding; conditions: 310 bp B, 22° C., pH 7.0, read-out: Dissociation Constant Kd
Description: as §1, §2, §3, §4, §5

Kd [5]	Minimum Inhibitory Concentration (MIC) [7]	Kd [10]	Structure (SMILES)	Kd [1]	Minimum Inhibitory Concentration (MIC) (S. aureus ATCC 33591)	Minimum Inhibitory Concentration (MIC) (S. aureus ATCC 43300)	Survival at 48 hrs [2]	Minimum Inhibitory Concentration (MIC) [3]	Minimum Inhibitory Concentration (MIC) [4]	Minimum Inhibitory Concentration (MIC) (S. aureus ATCC 27660)	Colony Count [6]	Kd [8]	Kd [9]	Kd [11]	MIC (S. aureus ATCC 27660; Staphylococcus aureus, read-out: Minimum Inhibitory Concentration (MIC))	MIC ([3]; Candida albicans, ATCC38247, read-out: Minimum Inhibitory Concentration (MIC))
			Cn1cc(NC(=O)c2cc(NC(=O)c3cc(NC(=O)c4sccc4Cl)cn3C)cn2C)cc1C(=O)NCCN1CCOCC1 [Compound 6]	20 nM	+ (+ = MIC ≦ 2)	− (− = MIC > 2)	86%	>32 µg/mL	++ (++ = MIC ≦ 1)							
0.1 nM	++ (++ = MIC ≦ 1)		Cn1cc(NC(=O)c2cc(NC(=O)c3cc(NC(=O)c4sc5ccccc5c4Cl)c[nH]3)cn2C)cc1C(=O)NCCN1CCOCC1 [Compound 9]		++ (++ = MIC ≦ 1)	+ (+ = MIC ≦ 2)		>32 µg/mL	+ (+ = MIC ≦ 2)	++ (++ = MIC ≦ 1)	6.17 log cfu/gram					
			Cc1cc(NC(=O)c2cc(NC(=O)c3cc(NC(=O)c4nsc(NCCN5CCCCC5)c4Cl)cn3C)cn2C)sn1 [Compound 13]	10 nM				>32 µg/mL		++ (++ = MIC ≦ 1)			5 nM			
	+ (+ = MIC ≦ 2)	5 nM	Cn1cc(NC(=O)c2cc(NC(=O)c3cc(NC(=O)c4cc5ccccc5cn4)cn3C)cn2C)cc1C(=O)NCCc1cccnc1 [Compound 14]		− (− = MIC > 2)			>32 µg/mL	− (− = MIC > 2)	++ (++ = MIC ≦ 1)						
	++ (++ = MIC ≦ 1)	1 nM	Cn1cc(NC(=O)c2cc3ccccc3cn2)cc1C(=O)Nc1cc(C(=O)Nc2cc(C(=O)NCCN3CCCCC3)ns2)n(C)c1 [Compound 19]		+ (+ = MIC ≦ 2)			>32 µg/mL	++ (++ = MIC ≦ 1)	++ (++ = MIC ≦ 1)						
			Cn1cc(NC(=O)c2cc(NC(=O)c3cc(NC(=O)c4cc5ccccc5cn4)no3)cn2C)cc1C(=O)NCCN1CCOCC1 [Compound 20]	5 nM										10 nM	≤ 1 µg/mL	> 32 µg/mL

Structure (SMILES)	Kd [5]	Minimum Inhibitory Concentration (MIC) [7]	Kd [10]	Kd [1]	Minimum Inhibitory Concentration (MIC) (S. aureus ATCC 33591)	Minimum Inhibitory Concentration (MIC) (S. aureus ATCC 43300)	Survival at 48 hrs [2]	Minimum Inhibitory Concentration (MIC) [3]	Minimum Inhibitory Concentration (MIC) [4]	Minimum Inhibitory Concentration (MIC) (S. aureus ATCC 27660)	Colony Count [6]	Kd [8]	Kd [9]	Kd [11]	MIC (S. aureus ATCC 27660; Staphylococcus aureus, read-out: Minimum Inhibitory Concentration (MIC))	MIC ([3]; Candida albicans, ATCC38247, read-out: Minimum Inhibitory Concentration (MIC))
Cn1cc(NC(=O)c2cc(NC(=O)c3cc(NC(=O)c4ccc(Cl)cc4F)c[nH]3)cn2C)cc1C(=O)NCCN1CCOCC1 [Compound 10]		− (− = MIC > 2)		1 nM	− (− = MIC > 2)			8 to 32 µg/mL	+ (+ = MIC ≦ 2)	+ (+ = MIC ≦ 2)		5 nM				
Cn1cc(NC(=O)c2cc3ccccc3cn2)cc1C(=O)Nc1cc(C(=O)Nc2cc(C(=O)NCCN3CCOCC3)n(CCN3CCOCC3)c2)n(C)c1 [Compound 17]		++ (++ = MIC ≦ 1)		5 nM	− (− = MIC > 2)			>32 µg/mL	++ (++ = MIC ≦ 1)	++ (++ = MIC ≦ 1)				< 100 nM		
